Laboratory results as given in US20230132093A1, “EXTRACELLULAR VESICLE-NLRP3 ANTAGONIST” (Codiak BioSciences, Inc., priority 2019, published 2023).
“Also recorded” adds a separate entry of the source.

Columns and labels:
mouse NLRP3 transcript = assay: NLRP3 knock down in mouse J774.1 cells, qRT-PCR; format: cell-based; conditions: 7-point titration
Method: In silico analysis of the mouse NLRP3 transcript was used to generate 100 candidate NLRP3 ASOs. Mouse J774.1 cells were treated in vitro with either 5 nM or 20 nM of each candidate NLRP3 ASO. NLRP3 expression was measured using qRT-PCR, and about 30 ASOs yielding a knock down of at least 50% were subjected to further analysis. The top 22 performing ASOs were then subjected to a 7-point titration of various concentrations in mouse J774.1 cells, and NLRP3 expression was again measured by qRT-PCR (FIGS. 4A-4V).

mouse NLRP3 reporter = assay: Knock down of HiBit-fused mouse NLRP3 reporter in HEK reporter cell line; format: cell-based; conditions: eleven concentrations
Text: A HEK reporter cell line was transfected with a mouse NLRP3 reporter contruct (FIG. 5A) to assay NLRP3 knockdown at eleven concentrations for the top five performing mouse ASOs (ASO Nos. 16, 19, 70, 98, and 43; FIG. 5B).

BMDM = assay: Viability of BMDM treated with LPS, ATP and mNLRP3 ASOs; format: cell-based, mouse
NLRP3 pathway = assay: IL-1β secretion in BMDM after ASO-RNAiMAX transfection, LPS and ATP; format: cell-based, mouse; conditions: 2 days post transfection, 200 ng/mL LPS 3 h, 5 mM ATP 3 h
Method: Bone marrow-derived macrophages (BMDM) can be used to determine whether knock down of NLRP3 has a downstream effect on activation of the NLRP3 pathway (FIGS. 6A-6B). BMDMs were transfected with increasing concentrations of the top five performing mouse ASOs (ASO Nos. 16, 19, 70, 98, and 43) as part of an ASO-RNAiMAX complex. Two days post transfection, the cells BMDM were treated with 200 ng/mL LPS. Three hour later, the BMDM were treated with 5 mM ATP. Three hours after ATP treatment, IL-1 β secretion was measured.

[1] = tested on: primary human MO macrophages; assay: Cell viability of cultured primary human MO macrophages treated with ASO; format: cell-based
human NLRP3 = assay: IL-1β secretion in cultured primary human MO macrophages after ASO, LPS and ATP; format: cell-based; conditions: for IL-1β induction: 50 nM ASO; for IL-1β secretion relative to ASO scramble controls: most donor cell populations
Method: The top-performing ASOs were further analyzed using human monocytes isolated from whole blood. Isolated monocytes were cultured for seven to eight days in M-CSF. Cells were then seeded and cultured overnight. […] Three hours later, the cells were treated with 5 mM ATP. Three hours later, IL-1β levels were measured using AlpaLISA. Cholesterol-tagged ASOs were incubated with PTGFRN-overexpressing exosomes to load the ASOs on the surface of the exosomes.

ASO No. 11: mouse NLRP3 ASO, SEQ ID NO: 206, Seq Start 2961 (antisense GCTTCGTAGATAGAGGTGTG; chemistry not fully specified)
IC50 (mouse NLRP3 transcript): 28.2 nM | Lowest % value (remaining NLRP3 transcript as a percent of starting levels) (mouse NLRP3 transcript): 30.70%

ASO No. 19: mouse NLRP3 ASO, SEQ ID NO: 202, Seq Start 318 (antisense GATACAGCCTTTCTCGGGCG; chemistry not given here)
Knock down of NLRP3 in the HEK reporter cell line (mouse NLRP3 reporter): dose-dependent knock down | Viability (BMDM): increased viability | IL-1β secretion (NLRP3 pathway): decreased IL-1β secretion at all doses tested | IC50 (mouse NLRP3 transcript): 12.7 nM | Lowest % value (remaining NLRP3 transcript as a percent of starting levels) (mouse NLRP3 transcript): 36.10%

ASO No. 43: mouse NLRP3 ASO, SEQ ID NO: 205, Seq Start 1132 (antisense CGTCAAAGGCCCCTTGTAGC; chemistry not given here)
Knock down of NLRP3 in the HEK reporter cell line (mouse NLRP3 reporter): dose-dependent knock down | Viability (BMDM): increased viability | IL-1β secretion (NLRP3 pathway): decreased IL-1β secretion at all doses tested | IC50 (mouse NLRP3 transcript): 15.4 nM | Lowest % value (remaining NLRP3 transcript as a percent of starting levels) (mouse NLRP3 transcript): 48.37%

ASO No. 16: mouse NLRP3 ASO, SEQ ID NO: 201, Seq Start 229 (antisense GCTTGCAACGGACACTCGTC; chemistry not given here)
Knock down of NLRP3 in the HEK reporter cell line (mouse NLRP3 reporter): dose-dependent knock down | Viability (BMDM): increased viability | IL-1β secretion (NLRP3 pathway): decreased IL-1β secretion at all doses tested | IC50 (mouse NLRP3 transcript): 6.56 nM | Lowest % value (remaining NLRP3 transcript as a percent of starting levels) (mouse NLRP3 transcript): 36.10%

ASO No. 70: mouse NLRP3 ASO, SEQ ID NO: 203, Seq Start 2235 (antisense CGTTTTGACCCTATGACAGT; chemistry not given here)
Knock down of NLRP3 in the HEK reporter cell line (mouse NLRP3 reporter): dose-dependent knock down | Viability (BMDM): increased viability | IL-1β secretion (NLRP3 pathway): decreased IL-1β secretion at all doses tested | IC50 (mouse NLRP3 transcript): 13.4 nM | Lowest % value (remaining NLRP3 transcript as a percent of starting levels) (mouse NLRP3 transcript): 30.43%

ASO No. 55: mouse NLRP3 ASO, SEQ ID NO: 210, Seq Start 1740 (antisense CTCGCAGTCCACTTCCTTCT; chemistry not fully specified)
IC50 (mouse NLRP3 transcript): 63.1 nM | Lowest % value (remaining NLRP3 transcript as a percent of starting levels) (mouse NLRP3 transcript): 59.17%

ASO No. 48: mouse NLRP3 ASO, SEQ ID NO: 209, Seq Start 1262 (antisense TCCAAGGCTACCGGCCTCGT; chemistry not fully specified)
IC50 (mouse NLRP3 transcript): 60.6 nM | Lowest % value (remaining NLRP3 transcript as a percent of starting levels) (mouse NLRP3 transcript): 65.00%

ASO 3094: human NLRP3 ASO, SEQ ID NO: 174 (antisense GTCGAAGCAGCACTCATGCG; chemistry not given here)
Cell viability ([1]; 2 nM ASO): remained stable | Cell viability ([1]; 10 nM ASO): remained stable | Cell viability ([1]; 50 nM ASO): dropped | IL-1β induction (human NLRP3; 2 nM, 10 nM): dose dependent decrease | IL-1β secretion relative to ASO scramble controls (human NLRP3; 2 nM): reduced IL-1β secretion | IL-1β secretion relative to ASO scramble controls (human NLRP3; 10 nM): reduced IL-1β secretion

ASO No. 21: mouse NLRP3 ASO, SEQ ID NO: 207, Seq Start 392 (antisense TCGCCATTGAAGTCAATCAT; chemistry not fully specified)
IC50 (mouse NLRP3 transcript): 30.1 nM | Lowest % value (remaining NLRP3 transcript as a percent of starting levels) (mouse NLRP3 transcript): 33.07%

ASO No. 41: mouse NLRP3 ASO, SEQ ID NO: 208, Seq Start 984 (antisense CTCTCGGCAGTGGATAAAGA; chemistry not fully specified)
IC50 (mouse NLRP3 transcript): 57.3 nM | Lowest % value (remaining NLRP3 transcript as a percent of starting levels) (mouse NLRP3 transcript): 52.30%

ASO No. 98: mouse NLRP3 ASO, SEQ ID NO: 204, Seq Start 3761 (antisense CGGGATGGTCAGTTAACAGG; chemistry not given here)
Knock down of NLRP3 in the HEK reporter cell line (mouse NLRP3 reporter; listed as 98): dose-dependent knock down; also recorded: most robust knock down | Viability (BMDM): increased viability | IL-1β secretion (NLRP3 pathway): decreased IL-1β secretion at all doses tested | IC50 (mouse NLRP3 transcript): 14.7 nM | Lowest % value (remaining NLRP3 transcript as a percent of starting levels) (mouse NLRP3 transcript): 42.17%

ASO 1664: human NLRP3 ASO, SEQ ID NO: 143 (antisense CGTCAAAGGCACCTTGCAGC; chemistry not given here)
Cell viability ([1]; 2 nM ASO): remained stable | Cell viability ([1]; 10 nM ASO): remained stable | Cell viability ([1]; 50 nM ASO): dropped | IL-1β induction (human NLRP3; 2 nM, 10 nM): dose dependent decrease | IL-1β secretion relative to ASO scramble controls (human NLRP3; 2 nM): reduced IL-1β secretion | IL-1β secretion relative to ASO scramble controls (human NLRP3; 10 nM): reduced IL-1β secretion

ASO 2672: human NLRP3 ASO, SEQ ID NO: 166 (antisense AGTCCATGGCCCTTTGCACG; chemistry not given here)
Cell viability ([1]; 2 nM ASO): remained stable | Cell viability ([1]; 10 nM ASO): remained stable | Cell viability ([1]; 50 nM ASO): dropped | IL-1β induction (human NLRP3; 2 nM, 10 nM): dose dependent decrease | IL-1β secretion relative to ASO scramble controls (human NLRP3; 2 nM): reduced IL-1β secretion | IL-1β secretion relative to ASO scramble controls (human NLRP3; 10 nM): reduced IL-1β secretion
